Reference: ChEMBL document CHEMBL1146722, “Synthesis and antibacterial activity of 6-O-arylpropargyl-9-oxime-11,12-carbamate ketolides” (2004)
Converted amounts (≈) assume the structure as drawn.

Assays:
Format in all cases: functional
[1] = test system: Haemophilus influenzae; experiment: In vitro antibacterial activity against Haemophilus influenzae GYR1435
[2] = test system: Staphylococcus aureus; experiment: In vitro antibacterial activity against Staphylococcus aureus 1775 strain
[3] = test system: Staphylococcus aureus; experiment: In vitro antibacterial activity against Staphylococcus aureus NCTC 10649M strain
[4] = test system: Streptococcus pneumoniae; experiment: In vitro antibacterial activity against Streptococcus pneumoniae 5649
[5] = test system: Streptococcus pneumoniae; experiment: In vitro antibacterial activity against Streptococcus pneumoniae 5979
[6] = test system: Streptococcus pyogenes; experiment: In vitro antibacterial activity against Streptococcus pyogenes 930
[7] = test system: Streptococcus pyogenes; experiment: In vitro antibacterial activity against Streptococcus pyogenes EES61
[8] = test system: Streptococcus pyogenes; experiment: In vitro antibacterial activity against Streptococcus pyogenes PIU 2548
[9] = test system: Staphylococcus aureus; experiment: In vitro antibacterial activity against Staphylococcus aureus A5177 strain
[10] = test system: Streptococcus pneumoniae; experiment: In vitro antibacterial activity against Streptococcus pneumoniae ATCC 6303

| SMILES | MIC [1] | MIC [2] | MIC [3] | MIC [4] | MIC [5] | MIC [6] | MIC [7] | MIC [8] | MIC [9] | MIC [10] |
| --- | --- | --- | --- | --- | --- | --- | --- | --- | --- | --- |
| CC[C@H]1OC(=O)[C@H](C)C(=O)[C@H](C)[C@@H](OC2O[C@H](C)C[C@H](N(C)C)[C@H]2O)[C@@](C)(OCC#Cc2ccc3nccnc3c2)C[C@@H](C)/C(=N\OC)[C@H](C)[C@H]2NC(=O)O[C@@]21C (stereo not given in full) | 8 µg/mL (≈ 10.1 µM) | > 128 µg/mL | 0.25 µg/mL (≈ 0.315 µM) | 0.125 µg/mL (≈ 0.157 µM) | 0.25 µg/mL (≈ 0.315 µM) | 8 µg/mL (≈ 10.1 µM) | 0.008 µg/mL (≈ 0.0101 µM) | 0.5 µg/mL (≈ 0.63 µM) | 0.008 µg/mL (≈ 0.0101 µM) | 0.008 µg/mL (≈ 0.0101 µM) |
| CC[C@H]1OC(=O)[C@H](C)C(=O)[C@H](C)[C@@H](OC2O[C@H](C)C[C@H](N(C)C)[C@H]2O)[C@@](C)(OCC#Cc2ccc(-c3nnn(C)n3)s2)C[C@@H](C)/C(=N\OC)[C@H](C)[C@H]2NC(=O)O[C@@]21C (stereo not given in full) | 4 µg/mL (≈ 4.82 µM) | 128 µg/mL (≈ 154 µM) | 0.25 µg/mL (≈ 0.301 µM) | 0.06 µg/mL (≈ 0.0723 µM) | 0.5 µg/mL (≈ 0.602 µM) | 32 µg/mL (≈ 38.6 µM) | 0.008 µg/mL (≈ 0.00964 µM) | 0.125 µg/mL (≈ 0.151 µM) | 0.008 µg/mL (≈ 0.00964 µM) | 0.008 µg/mL (≈ 0.00964 µM) |
| CC[C@H]1OC(=O)[C@H](C)C(=O)[C@H](C)[C@@H](OC2O[C@H](C)C[C@H](N(C)C)[C@H]2O)[C@@](C)(OCC#Cc2cnc3ccccc3c2)C[C@@H](C)/C(=N\OC)[C@H](C)[C@H]2NC(=O)O[C@@]21C (stereo not given in full) | 4 µg/mL (≈ 5.04 µM) | 128 µg/mL (≈ 161 µM) | 1 µg/mL (≈ 1.26 µM) | 0.125 µg/mL (≈ 0.158 µM) | 0.25 µg/mL (≈ 0.315 µM) | 1 µg/mL (≈ 1.26 µM) | 0.008 µg/mL (≈ 0.0101 µM) | 0.125 µg/mL (≈ 0.158 µM) | 0.25 µg/mL (≈ 0.315 µM) | 0.008 µg/mL (≈ 0.0101 µM) |
| CC[C@H]1OC(=O)[C@H](C)C(=O)[C@H](C)[C@@H](OC2O[C@H](C)C[C@H](N(C)C)[C@H]2O)[C@@](C)(OCC#Cc2ccc(-c3ccccn3)s2)C[C@@H](C)/C(=N\OC)[C@H](C)[C@H]2NC(=O)O[C@@]21C (stereo not given in full) | 4 µg/mL (≈ 4.85 µM) | 64 µg/mL (≈ 77.6 µM) | 0.25 µg/mL (≈ 0.303 µM) | 0.008 µg/mL (≈ 0.0097 µM) | 0.008 µg/mL (≈ 0.0097 µM) | 16 µg/mL (≈ 19.4 µM) | 0.008 µg/mL (≈ 0.0097 µM) | 0.03 µg/mL (≈ 0.0364 µM) | 0.008 µg/mL (≈ 0.0097 µM) | 0.008 µg/mL (≈ 0.0097 µM) |
| CC[C@H]1OC(=O)[C@H](C)C(=O)[C@H](C)[C@@H](OC2O[C@H](C)C[C@H](N(C)C)[C@H]2O)[C@@](C)(OCC#Cc2cnc3cccnc3c2)C[C@@H](C)/C(=N\OC)[C@H](C)[C@H]2NC(=O)O[C@@]21C (stereo not given in full) | 2 µg/mL (≈ 2.52 µM) | > 128 µg/mL | 1 µg/mL (≈ 1.26 µM) | 0.03 µg/mL (≈ 0.0378 µM) | 1 µg/mL (≈ 1.26 µM) | 0.5 µg/mL (≈ 0.63 µM) | 0.008 µg/mL (≈ 0.0101 µM) | 0.06 µg/mL (≈ 0.0756 µM) | 0.008 µg/mL (≈ 0.0101 µM) | 0.008 µg/mL (≈ 0.0101 µM) |
| CC[C@H]1OC(=O)[C@@](C)(F)C(=O)[C@H](C)[C@@H](OC2O[C@H](C)C[C@H](N(C)C)[C@H]2O)[C@@](C)(OCC#Cc2cnc3ccccc3c2)C[C@@H](C)/C(=N\OC)[C@H](C)[C@H]2NC(=O)O[C@@]21C (stereo not given in full) | 4 µg/mL (≈ 4.93 µM) | 64 µg/mL (≈ 78.9 µM) | 0.5 µg/mL (≈ 0.617 µM) | 0.125 µg/mL (≈ 0.154 µM) | 0.125 µg/mL (≈ 0.154 µM) | 0.5 µg/mL (≈ 0.617 µM) | 0.008 µg/mL (≈ 0.00986 µM) | 0.25 µg/mL (≈ 0.308 µM) | 0.25 µg/mL (≈ 0.308 µM) | 0.008 µg/mL (≈ 0.00986 µM) |
| CC[C@H]1OC(=O)[C@@](C)(F)C(=O)[C@H](C)[C@@H](OC2O[C@H](C)C[C@H](N(C)C)[C@H]2O)[C@@](C)(OCC#Cc2ccc(-c3nnn(C)n3)s2)C[C@@H](C)/C(=N\OC)[C@H](C)[C@H]2NC(=O)O[C@@]21C (stereo not given in full) | 8 µg/mL (≈ 9.43 µM) | 64 µg/mL (≈ 75.5 µM) | 1 µg/mL (≈ 1.18 µM) | 0.125 µg/mL (≈ 0.147 µM) | 0.25 µg/mL (≈ 0.295 µM) | 8 µg/mL (≈ 9.43 µM) | 0.008 µg/mL (≈ 0.00943 µM) | 0.5 µg/mL (≈ 0.59 µM) | 0.25 µg/mL (≈ 0.295 µM) | 0.008 µg/mL (≈ 0.00943 µM) |
| CC[C@H]1OC(=O)[C@H](C)[C@@H](O[C@H]2C[C@@](C)(OC)[C@@H](O)[C@H](C)O2)[C@H](C)[C@@H](O[C@@H]2O[C@H](C)C[C@H](N(C)C)[C@H]2O)[C@](C)(O)C[C@@H](C)C(=O)[C@H](C)[C@@H](O)[C@]1(C)O [ERYTHROMYCIN] | 4 µg/mL (≈ 5.45 µM) | > 128 µg/mL | 0.5 µg/mL (≈ 0.681 µM) | 4 µg/mL (≈ 5.45 µM) | > 128 µg/mL | > 128 µg/mL | 0.015 µg/mL (≈ 0.0204 µM) | 8 µg/mL (≈ 10.9 µM) | > 128 µg/mL | 0.015 µg/mL (≈ 0.0204 µM) |
| CC[C@H]1OC(=O)[C@H](C)C(=O)[C@H](C)[C@@H](O[C@@H]2O[C@H](C)C[C@H](N(C)C)[C@H]2O)[C@](C)(OC)C[C@@H](C)C(=O)[C@H](C)[C@H]2N(CCCCn3cnc(-c4cccnc4)c3)C(=O)O[C@]12C [TELITHROMYCIN] | 2 µg/mL (≈ 2.46 µM) | > 100 µg/mL | 0.1 µg/mL (≈ 0.123 µM) | 0.5 µg/mL (≈ 0.616 µM) | 8 µg/mL (≈ 9.85 µM) | 8 µg/mL (≈ 9.85 µM) | 0.004 µg/mL (≈ 0.00493 µM) | 2 µg/mL (≈ 2.46 µM) | 0.1 µg/mL (≈ 0.123 µM) | 0.004 µg/mL (≈ 0.00493 µM) |
